Data as given in ChEMBL document CHEMBL5325399, “Pleiotropic effects of a mitochondrion-targeted glutathione reductase inhibitor on restraining tumor cells” (Eur J Med Chem, 2023).
pIC50: −log10 of the molar value. Activity calls are given as the source filed them. The rule behind the calls is not given here.

Legend:
Cell membrane [1] = test: Dissipation of mitochondrial membrane potential in human HeLa cells assessed as proportion of cells with high MMP measured after 24 hrs by JC-1 staining based flow cytometry (reference value: 96.54%); conditions: Mitochondria
Cell membrane [2] = test: Dissipation of mitochondrial membrane potential in human HeLa cells assessed as proportion of cells with low MMP measured after 24 hrs by JC-1 staining based flow cytometry (reference value: 3.01%); conditions: Mitochondria
[3] = Drug uptake in human HeLa cells mitochondria measured after 6 hrs; type: ADME
HepG2 [4] = test: Cytotoxicity against human HepG2 cells assessed as reduction in cell viability measured after 48 hrs; type: functional, cell-based; conditions: HepG2, 48 h
HeLa [5] = test: Cytotoxicity against human HeLa cells assessed as reduction in cell viability measured after 48 hrs; type: functional, cell-based
A549 = test: Cytotoxicity against human A549 cells assessed as reduction in cell viability measured after 48 hrs; type: functional, cell-based; conditions: A549, 48 h
HCT-116 = test: Cytotoxicity against human HCT-116 cells assessed as reduction in cell viability measured after 48 hrs; type: functional, cell-based; conditions: HCT-116, 48 h
MCF7 = test: Cytotoxicity against human MCF7 cells assessed as reduction in cell viability measured after 48 hrs; type: functional, cell-based; conditions: MCF7, 48 h
HeLa [6] = test: Induction of ROS production in human HeLa cells by DCFDA staining based fluorescence analysis; type: functional, cell-based
HeLa [7] = test: Induction of mitochondrial morphological changes in human HeLa cells assessed as multilayered vesicles formation at IC50 incubated for 48 hrs by transmission electron microscopy; type: functional, cell-based
HeLa [8] = test: Induction of mitochondrial morphological changes in human HeLa cells assessed as disappearance of cristae and vacuolar mitochondrial formation at 10 uM incubated for 48 hrs by transmission electron microscopy; type: functional, cell-based
HeLa [9] = test: Induction of mitochondrial morphological changes in human HeLa cells assessed as increase in Mitofilin expression at 2 uM by immunofluorescence analysis; type: functional, cell-based
Cell membrane [10] = test: Dissipation of mitochondrial membrane potential in human HeLa cells assessed as increase in green fluorescence intensity at 0.5 to 5 uM measured after 24 hrs by JC-1 staining based fluorescence microscopy; conditions: Mitochondria, dose 0.5-5 µM
Cell membrane [11] = test: Dissipation of mitochondrial membrane potential in human HeLa cells assessed as proportion of cells with high MMP at 0.5 uM measured after 24 hrs by JC-1 staining based flow cytometry (reference value: 96.54%); conditions: Mitochondria
Cell membrane [12] = test: Dissipation of mitochondrial membrane potential in human HeLa cells assessed as proportion of cells with low MMP at 0.5 uM measured after 24 hrs by JC-1 staining based flow cytometry (reference value: 3.01%); conditions: Mitochondria
Cell membrane [13] = test: Dissipation of mitochondrial membrane potential in human HeLa cells assessed as proportion of cells with high MMP at 5 uM measured after 24 hrs by JC-1 staining based flow cytometry (reference value: 96.54%); conditions: Mitochondria
Cell membrane [14] = test: Dissipation of mitochondrial membrane potential in human HeLa cells assessed as proportion of cells with low MMP at 5 uM measured after 24 hrs by JC-1 staining based flow cytometry (reference value: 3.01%); conditions: Mitochondria
HeLa [15] = test: Induction of autophagy in human HeLa cells assessed as autophagosomes vacuole formation; type: functional, cell-based
HeLa [16] = test: Induction of autophagy in human HeLa cells assessed as downregulation of p62 expression incubated for 24 hrs by immunoblotting analysis; type: functional, cell-based; conditions: dose 0.5-10 µM
HeLa [17] = test: Induction of autophagy in human HeLa cells assessed as increase in ratio of lipidated LC3B-II to LC3B-I incubated for 24 hrs by immunoblotting analysis; type: functional, cell-based; conditions: dose 0.5-10 µM
HeLa [18] = test: Induction of mitophagy in human HeLa cells assessed as colocalization of mitochondria and lysosomes by confocal laser scanning microscopy; type: functional, cell-based
HeLa [19] = test: Induction of mitophagy in human HeLa cells assessed as localization of mitochondria in vacuoles at 10 uM incubated for 48 hrs by transmission electron microscopy; type: functional, cell-based
HeLa [20] = test: Inhibition of mitochondrial respiration in human HeLa cells assessed as decrease in oxygen consumption rate at 2 uM incubated for 24 hrs by Seahorse XF-bioenergetic system analysis; type: functional, cell-based
HeLa [21] = test: Inhibition of mitochondrial respiration in human HeLa cells assessed as decrease in basal respiration; type: functional, cell-based
HeLa [22] = test: Inhibition of mitochondrial respiration in human HeLa cells assessed as decrease in ATP production capacity; type: functional, cell-based
HeLa [23] = test: Inhibition of mitochondrial respiration in human HeLa cells assessed as increase in proton leakage; type: functional, cell-based
HepG2 [24] = test: Inhibition of mitochondrial respiration in human HepG2 cells assessed as decrease in oxygen consumption rate by Seahorse XF-bioenergetic system analysis; type: functional, cell-based
HeLa [25] = test: Inhibition of glycolysis in human HeLa cells assessed as decrease in extracellular acidification rate at 2 uM; type: functional, cell-based
HeLa [26] = test: Decrease in reduced glutathione (GSH) levels in human HeLa cells; type: functional, cell-based
HepG2 [27] = test: Inhibition of glycolysis in human HepG2 cels assessed as decrease in extracellular acidification rate; type: functional, cell-based
HeLa [28] = test: Decrease in reduced glutathione (GSH) levels in human HeLa cells at 1 to 5 uM incubated for 6 hrs by Thiol-tracker Violet based confocal imaging analysis; type: functional, cell-based; conditions: dose 1-5 µM
[29] = Increase in oxidized glutathione (GSSG) levels in human HeLa cells relative to control; type: functional
HeLa [30] = test: Increase in oxidized glutathione (GSSG) levels in human HeLa cells assessed as decrease in ratio of intracellular GSH to GSSG at 1 to 20 uM; type: functional, cell-based; conditions: dose 1-20 µM
[31] = target: T1, Glutathione reductase, mitochondrial (Homo sapiens, UniProt P00390); test: Inhibition of glutathione reductase (unknown origin)
T1 sequence (P00390 whole entry): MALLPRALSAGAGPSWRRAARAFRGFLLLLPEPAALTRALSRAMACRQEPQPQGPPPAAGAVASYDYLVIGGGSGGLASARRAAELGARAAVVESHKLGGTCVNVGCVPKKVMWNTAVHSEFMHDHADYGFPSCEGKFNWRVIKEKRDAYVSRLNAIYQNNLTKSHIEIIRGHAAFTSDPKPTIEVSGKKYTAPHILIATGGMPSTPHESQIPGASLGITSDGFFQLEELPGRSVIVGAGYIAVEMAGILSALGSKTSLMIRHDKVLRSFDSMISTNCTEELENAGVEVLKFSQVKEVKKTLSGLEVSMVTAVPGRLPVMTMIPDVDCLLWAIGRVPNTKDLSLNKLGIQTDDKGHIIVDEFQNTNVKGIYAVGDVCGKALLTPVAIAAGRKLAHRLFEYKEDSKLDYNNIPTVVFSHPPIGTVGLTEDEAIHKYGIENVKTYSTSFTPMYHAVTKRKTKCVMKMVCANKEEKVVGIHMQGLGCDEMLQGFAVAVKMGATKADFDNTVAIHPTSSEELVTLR

[32] = target: T2, Glutathione reductase, mitochondrial (Homo sapiens) (UniProt P00390); test: Inhibition of glutathione reductase in human HeLa cells; type: cell-based; conditions: concentration not given here
T2 sequence (whole entry): T1 sequence (P00390 whole entry)

[33] = target: T2, Glutathione reductase, mitochondrial (Homo sapiens); test: Inhibition of glutathione reductase in human HeLa cells mitochondria; conditions: concentration not given here
HeLa [34] = test: Cytotoxicity against GR-knock out human HeLa cells assessed as reduction in cell viability at 10 uM incubated for 48 hrs; type: functional, cell-based
[35] = target: T2, Glutathione reductase, mitochondrial (Homo sapiens); test: Covalent binding affinity to Cys278 residue of glutathione reductase (unknown origin) by mass spectrometry

N#CC(C#N)=NNc1cccc(Cl)c1
Activity (Cell membrane [1]): 1.24% | Activity (Cell membrane [2]): 98.8%

O=C(/C=C/c1cccc([N+](=O)[O-])c1)c1ccc(OCc2cn(CCCC[P+](c3ccccc3)(c3ccccc3)c3ccccc3)nn2)c(F)c1
Drug uptake [3]: 33% | pIC50 (HepG2 [4]): 5.34 | pIC50 (HeLa [5]): 5.62 | pIC50 (A549): 4.99 | pIC50 (HCT-116): 5.09 | pIC50 (MCF7): 4.76 | Activity (HeLa [6]): Active | Activity (HeLa [7]): Active | Activity (HeLa [8]): Active | Activity (HeLa [9]): Active | Activity (Cell membrane [10]): Active | Activity (Cell membrane [11]): 49.4% | Activity (Cell membrane [12]): 50.1% | Activity (Cell membrane [13]): 15.6% | Activity (Cell membrane [14]): 80.7% | Activity (HeLa [15]): Active | Activity (HeLa [16]): Dose-Dependent Effect | Activity (HeLa [17]): Dose-Dependent Effect | Activity (HeLa [18]): Active | Activity (HeLa [19]): Active | inhibition (HeLa [20]): Active | inhibition (HeLa [21]): Active | inhibition (HeLa [22]): Active | inhibition (HeLa [23]): Active | inhibition (HepG2 [24]): Active | inhibition (HeLa [25]): Active | inhibition (HeLa [26]): inactive | inhibition (HepG2 [27]): Active | inhibition (HeLa [28]): inactive | fold change (FC) [29]: 2 | Activity (HeLa [30]): Active | pIC50 ([31]; read-out: IC50): 6.23 | inhibition [32]: 20% | inhibition [33]: 50% | Activity (HeLa [34]): inactive | Activity [35]: Active

COc1ccc(C(=O)/C=C/c2cccc([N+](=O)[O-])c2)cc1F
Drug uptake [3]: 12% | pIC50 (HepG2 [4]): < 4.30 | pIC50 (HeLa [5]): < 4.30 | pIC50 (A549): < 4.00 | pIC50 (HCT-116): < 4.30 | pIC50 (MCF7): < 4.00 | IC50 [31]: Not Active | Activity [35]: inactive
